Source: patent publication US8802597B2, “Herbicidal pyrimidines” (E I du Pont de Nemours and Company, priority 2003, dated 2014)

Tested on: sugarcane (Saccharum officinarum)
Test: Test G sugarcane pre/postemergence
Type: in vivo
Details: Postemergence, scale 0 to 100
From the text: Also at a different time, seed pieces (nodes) of sugarcane (Saccharum officinarum) were planted and treated preemergence and/or postemergence with some of the test chemicals formulated in the same manner. Treated plants and controls were maintained in a greenhouse for 14 days, after which time the treated plants were compared to controls and visually evaluated.
Plant response ratings, summarized in Table G, are based on a scale of 0 to 100 where 0 is no effect and 100 is complete control. A dash (-) response means no test result.

COC(=O)c1nc(C2CC2)nc(N)c1Cl [Compound 9, methyl 6-amino-5-chloro-2-cyclopropyl-4-pyrimidinecarboxylate]
Plant response rating, Sugarcane (250 g ai/ha): 7
Plant response rating, Sugarcane (500 g ai/ha): 17
Plant response rating, Sugarcane (31 g ai/ha): 0
Plant response rating, Sugarcane (62 g ai/ha): 0
Plant response rating, Sugarcane (125 g ai/ha): 0
